In ChEMBL document CHEMBL4251584, “Xanthine oxidase inhibitory activity of natural and hemisynthetic flavonoids from Gardenia oudiepe (Rubiaceae) in vitro and molecular docking studies” (Eur J Med Chem, 2018):

Assays:
[1] = target: T1, Xanthine dehydrogenase/oxidase (Bos taurus, UniProt P80457); assay: Inhibition of bovine milk xanthine oxidase using xanthine as substrate preincubated for 15 mins followed by substrate addition measured after 30 mins by UV-VIS spectrophotometric analysis; conditions: for inhibition (INH): cattle, 0.5 h
[2] = target: T1, Xanthine dehydrogenase/oxidase; assay: Potency index, ratio of IC50 for allopurinol to IC50 for test compound for inhibition of bovine milk xanthine oxidase using xanthine as substrate preincubated for 15 mins followed by substrate addition measured after 30 mins by UV-VIS spectrophotometric analysis; conditions: cattle, 0.5 h

T1 sequence (P80457 whole entry): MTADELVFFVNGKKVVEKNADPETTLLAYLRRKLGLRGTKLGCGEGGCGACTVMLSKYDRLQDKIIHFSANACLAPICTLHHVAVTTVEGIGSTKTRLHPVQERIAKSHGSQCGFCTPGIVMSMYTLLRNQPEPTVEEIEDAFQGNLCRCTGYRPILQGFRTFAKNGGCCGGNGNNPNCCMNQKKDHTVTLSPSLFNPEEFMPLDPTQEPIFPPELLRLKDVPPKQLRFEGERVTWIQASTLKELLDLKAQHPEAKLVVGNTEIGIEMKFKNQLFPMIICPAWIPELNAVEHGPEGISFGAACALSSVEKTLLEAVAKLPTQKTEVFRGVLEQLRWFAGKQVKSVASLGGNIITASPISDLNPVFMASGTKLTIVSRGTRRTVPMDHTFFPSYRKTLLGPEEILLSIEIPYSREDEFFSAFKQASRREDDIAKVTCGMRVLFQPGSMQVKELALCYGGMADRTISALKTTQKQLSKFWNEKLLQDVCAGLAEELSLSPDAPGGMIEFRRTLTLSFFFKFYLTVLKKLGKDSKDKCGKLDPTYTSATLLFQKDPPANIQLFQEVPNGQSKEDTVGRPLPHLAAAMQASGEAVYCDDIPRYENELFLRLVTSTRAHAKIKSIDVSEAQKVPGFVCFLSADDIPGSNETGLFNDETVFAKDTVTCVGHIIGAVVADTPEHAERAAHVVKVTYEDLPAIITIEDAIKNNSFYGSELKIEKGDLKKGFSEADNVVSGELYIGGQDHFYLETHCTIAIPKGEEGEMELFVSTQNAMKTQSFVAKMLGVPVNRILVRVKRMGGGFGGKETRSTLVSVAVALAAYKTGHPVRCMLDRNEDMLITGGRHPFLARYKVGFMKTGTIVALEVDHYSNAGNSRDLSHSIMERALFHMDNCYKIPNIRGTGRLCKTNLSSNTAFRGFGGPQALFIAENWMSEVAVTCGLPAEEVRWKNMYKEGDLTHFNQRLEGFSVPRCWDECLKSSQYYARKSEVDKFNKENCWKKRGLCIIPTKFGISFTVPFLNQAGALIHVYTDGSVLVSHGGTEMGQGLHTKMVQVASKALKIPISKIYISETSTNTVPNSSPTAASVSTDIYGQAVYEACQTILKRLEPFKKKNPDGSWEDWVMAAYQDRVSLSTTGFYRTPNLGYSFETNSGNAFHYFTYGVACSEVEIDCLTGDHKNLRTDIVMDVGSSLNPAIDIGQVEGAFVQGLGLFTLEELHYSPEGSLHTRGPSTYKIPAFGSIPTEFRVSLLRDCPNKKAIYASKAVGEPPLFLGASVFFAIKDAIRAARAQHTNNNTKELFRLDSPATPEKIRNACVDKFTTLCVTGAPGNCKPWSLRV

SMILES: COc1ccc(-c2oc3cc(OC)cc(O)c3c(=O)c2OC)cc1
- IC50 [1]: 9.79 µM
- inhibition (INH) [1]: Dose-dependent effect

SMILES: COc1cc(-c2oc3cc(O)c(OC)c(O)c3c(=O)c2OC)cc(OC)c1OC
- IC50 [1]: 4.54 µM
- inhibition (INH) [1]: Dose-dependent effect

SMILES: COc1c(-c2ccc(O)cc2)oc2cc(O)cc(O)c2c1=O [ISOKAEMPFERIDE]
- IC50 [1]: 0.004 µM
- inhibition (INH) [1]: Dose-dependent effect
- Ratio IC50 [2]: 63

SMILES: COc1c(O)cc2oc(-c3ccc(O)cc3)c(OC)c(=O)c2c1O [3,6-DIMETHOXY KAEMPFEROL]
- IC50 [1]: 0.05 µM
- inhibition (INH) [1]: Dose-dependent effect
- Ratio IC50 [2]: 5

SMILES: COc1cc(O)c2c(=O)c(OC)c(-c3cc(O)c(OC)c(OC)c3)oc2c1
- IC50 [1]: 21 µM
- inhibition (INH) [1]: Dose-dependent effect

SMILES: COc1ccc(-c2oc3cc(O)c(OC)c(O)c3c(=O)c2OC)cc1 [SANTIN]
- IC50 [1]: 0.22 µM
- inhibition (INH) [1]: Dose-dependent effect

SMILES: COc1cc(-c2oc3cc(O)c(OC)c(O)c3c(=O)c2OC)cc(O)c1OC
- IC50 [1]: 6.95 µM
- inhibition (INH) [1]: Dose-dependent effect

SMILES: COc1ccc(-c2oc3cc(OC)c(OC)c(O)c3c(=O)c2OC)cc1
- IC50 [1]: 14.9 µM
- inhibition (INH) [1]: Dose-dependent effect

SMILES: COc1cc(-c2oc3cc(O)cc(O)c3c(=O)c2OC)cc(O)c1OC
- IC50 [1]: 0.09 µM
- inhibition (INH) [1]: Dose-dependent effect
- Ratio IC50 [2]: 3
